Experimental data from publication PMC3617668, “In Vitro Antileishmanial, Trypanocidal, and Mammalian Cell Activities of Diverse N,N′ -Dihetaryl Substituted Diamines and Related Compounds” (Scientia Pharmaceutica, 2012).
Several values for one entry are separate records, joined by “and”; a condition that tells them apart may be missing. Identical values can stand only once.

Experiments:
[1] = Mammalian cell toxicity, MTT, THP-1 cells; assay type: cell-based; conditions: human, THP-1 cells transformed into adherent macrophages with PMA, 72 h, MTT; for CC50 at 72 h: read-out: Mammalian cells THP-1 CC50 ± SD
Procedure: (§1) Vero cells and THP-1 cells transformed into adherent macrophages with PMA in 96 microwell plates where they were treated with compounds (0-350 μM) during 72 h at 37 °C, 5% CO2-95% air mixture. The viability of the cells was evaluated by using the tetrazolium-dye (MTT) colorimetric method. After incubation of the cells with the MTT (5mg/mL) reagent for 4 hours, DMSO was added. The samples were read using an ELISA plate reader at a wavelength of 580 nm. The amount of color produced is directly proportional to the number of viable cells. The percentage of cytotoxicity was calculated by the equation: cytotoxicity (%) = (OD control group-OD treatment group)/OD control group × 100 [31]. […] The data were calculated by linear regression using the software ([…]; GO Business Solution, Guildford, UK). The selectivity index (SI) was calculated dividing CC50/IC50. Each experiment was repeated twice and the values represent the results of one representative experiment. […] The analysis to determine the statistical differences in biological activity was performed using the analysis of variance (ANOVA) and the Bonferroni post-test. We also performed Student's t test for comparison between the two variables, using GraphPad Prism software version 5.03.

[2] = system: L. (L.) infantum promastigotes; experiment: In vitro activity on L. (L.) infantum promastigotes, counting viable parasites; assay type: cell-based, Leishmania (Leishmania) infantum; conditions: for IC50: Leishmania infantum, 72 h, 28 °C, read-out: L. (L) infantum promastigotes IC50 ± SD; for L. (L) infantum promastigotes SI: selectivity index CC50/IC50; for activity on L. (L.) infantum promastigotes, in words: free-living form
Procedure: (§2) Epimastigotes of T. cruzi and promastigotes forms of L. […] The inhibition of parasite growth was microscopically determined by counting viable (live) parasites in a haemocytometer using yellow eosin as vital dye; live parasites (uncolored) and dead (orange) were counted. All of the experiments were performed with parasites in their logarithmic phase of growth. […] Negative controls were used without the drug (culture medium alone) in each experiment. […] The data were calculated by linear regression using the software ([…]; GO Business Solution, Guildford, UK). The selectivity index (SI) was calculated dividing CC50/IC50. Each experiment was repeated twice and the values represent the results of one representative experiment. […] The analysis to determine the statistical differences in biological activity was performed using the analysis of variance (ANOVA) and the Bonferroni post-test. We also performed Student's t test for comparison between the two variables, using GraphPad Prism software version 5.03.

T. cruzi epimastigotes = experiment: In vitro activity on T. cruzi epimastigotes, counting viable parasites; assay type: cell-based, Trypanosoma cruzi; conditions: for IC50: Trypanosoma cruzi, 72 h, 28 °C, read-out: T. cruzi epimastigotes IC50 ± SD; for T. cruzi epimastigotes SI: selectivity index CC50/IC50; for activity on T. cruzi epimastigotes, in words: free-living form
Procedure: as §2

[3] = Mammalian cell toxicity, MTT, Vero cells; assay type: cell-based; conditions: African green monkey, Vero cells, 72 h, MTT; for CC50 at 72 h: read-out: Mammalian cells Vero CC50 ± SD
Procedure: as §1

Vero cells = experiment: Mammalian cell toxicity, MTT, Vero cells; assay type: cell-based
Procedure: as §1

[4] = system: T. cruzi intracellular amastigotes; experiment: Intracellular amastigotes of T. cruzi in Vero cells; assay type: cell-based, Trypanosoma cruzi; conditions: for IC90 / IC50: Trypanosoma cruzi, Vero cells, 72 h; for IC50: 98.1% cells infected before treatment; for T. cruzi intracellular amastigotes SI: selectivity index CC50/IC50
Procedure: (§3) For the amastigotes assays, adherent Vero cells or THP-1 macrophages (after transformation with 10 ng/mL PMA) were infected with tissue-derived trypomastigotes or stationary phase promastigotes, respectively, at a ratio of 10:1 and maintained in a 5% CO2-95% air mixture at 37 °C. After 24 h, infected cultures with >50% of infected cells were incubated with the compounds (from 3–300 μM) in a three-fold dilution series for 72 h. Drug activity was determined from the % of infected cells in treated and untreated cultures in fixed methanol and Giemsa stained preparations. Parasites’ assays were performed twice and each tested concentration was tested in triplicate.
(§4) Negative controls were used without the drug (culture medium alone) in each experiment.
(§5) The data were calculated by linear regression using the software (Msxlfit; GO Business Solution, Guildford, UK). The selectivity index (SI) was calculated dividing CC50/IC50. Each experiment was repeated twice and the values represent the results of one representative experiment. […] The analysis to determine the statistical differences in biological activity was performed using the analysis of variance (ANOVA) and the Bonferroni post-test. We also performed Student’s t test for comparison between the two variables, using GraphPad Prism software version 5.03. P values <0.05 were considered to be statistically significant.

THP-1 cells = experiment: Mammalian cell toxicity, MTT, THP-1 cells; assay type: cell-based
Procedure: as §1

[5] = system: L.(V.) panamensis intracellular amastigotes; experiment: Intracellular amastigotes of L. (V.) panamensis in THP-1 macrophages; assay type: cell-based, Leishmania (Viannia) panamensis; conditions: for IC90 / IC50: THP-1 macrophages, 72 h; for IC50: 78.3% cells infected before treatment; for L.(V.) panamensis intracellular amastigotes SI: selectivity index CC50/IC50
Procedure: as §3, §4, §5

[6] = system: L. (L.) amazonensis intracellular amastigotes; experiment: Intracellular amastigotes of L. (L.) amazonensis in THP-1 macrophages; assay type: cell-based, Leishmania (Leishmania) amazonensis; conditions: for IC90 / IC50: Leishmania amazonensis, THP-1 macrophages, 72 h; for IC50: 58.6% cells infected before treatment; for L. (L.) amazonensis intracellular amastigotes SI: selectivity index CC50/IC50
Procedure: as §3, §4, §5

[7] = system: L. (L.) infantum intracellular amastigotes; experiment: Intracellular amastigotes of L. (L.) infantum infecting THP-1 macrophages; assay type: cell-based, Leishmania (Leishmania) infantum; conditions: for IC90 / IC50: Leishmania infantum, THP-1 macrophages, 72 h; for IC50: 48.58% cells infected before treatment; for L. (L.) infantum intracellular amastigotes SI: selectivity index CC50/IC50
Procedure: as §3, §4, §5

SMILES | CC50 at 72 h [1] | IC50 [2] | L. (L) infantum promastigotes SI [2] | IC50 (T. cruzi epimastigotes) | CC50 at 72 h [3] | T. cruzi epimastigotes SI (T. cruzi epimastigotes) | other results
COc1ccc(CNCCNCc2ccc(OC)c(O)c2)cc1O [5d] | > 300 µM | 40.2 ± 5.21 µM | >7.48 | 0.88 ± 0.06 µM | > 300 µM |  | 
O=C1CSC(c2cccnc2)N1CCCCN1C(=O)CSC1c1cccnc1 (stereo not drawn) [6j] | > 250 µM | > 250 µM | >1.0 | 235 ± 3.06 µM | 75.4 ± 1.8 µM | 0.32 | 
c1ccc(CNCCCNCc2ccccc2)cc1 [5b] | 169 ± 29.8 µM | 1.96 ± 0.07 µM | 86.29 | 5.35 ± 0.27 µM | 343 ± 29.4 µM | 64.2 | 
O=C(CCl)NCCNC(=O)CCl [7a] | > 300 µM | 176 ± 19 µM | >2.66 | 65.9 ± 5.54 µM | 25.7 ± 1.22 µM | 0.38 | CC90 at 72 h [3]: 49.5 ± 1.87 µM; toxicity on Vero cells, in words (Vero cells): toxic
CC1CS(=O)(=O)CCN1/N=C/c1ccc([N+](=O)[O-])o1 (stereo not drawn) [Nif, Nifurtimox, reference compound] |  |  |  | 2.71 ± 0.05 µM | 76.5 ± 3.2 µM | 28.23 | IC90 [4]: 10.2 ± 1.6 µM; IC50 [4]: 2.34 ± 0.83 µM; T. cruzi intracellular amastigotes SI [4]: 55
O=C(CCl)NCCCCNC(=O)CCl [7c] | 366 µM | 132 ± 7.63 µM | 2.76 | 54.2 ± 1.16 µM | 37.1 ± 0.45 µM | 0.68 | CC90 at 72 h [3]: 77.6 ± 3.15 µM; toxicity on Vero cells, in words (Vero cells): toxic
O=C(CCl)N(CCCCN(Cc1ccccc1)C(=O)CCl)Cc1ccccc1 [compound 8] | 25.1 ± 0.35 µM | 3.91 ± 0.01 µM | 6.4 | 0.02 ± 0.004 µM | > 250 µM |  | toxicity on THP-1 cells, in words (THP-1 cells): partially toxic; CC90 at 72 h [1]: > 208 µM; activity on L. (L.) infantum promastigotes, in words [2]: active; activity on T. cruzi epimastigotes, in words (T. cruzi epimastigotes): active
O=C1CSC(c2cccnc2)N1CCN1C(=O)CSC1c1cccnc1 (stereo not drawn) [6g] | > 250 µM | > 250 µM | >1.0 | > 250 µM | > 250 µM | >1.0 | 
O=C1CSC(c2ccccc2)N1CCCCN1C(=O)CSC1c1ccccc1 (stereo not drawn) [6c] | > 250 µM | > 250 µM | >1.0 | > 250 µM | > 250 µM | >1.01 | 
c1cncc(CNCCCCNCc2cccnc2)c1 [5j] | > 300 µM | 44.2 ± 10.5 µM | >8.36 | > 250 µM | > 300 µM | >1 | 
c1ccc(CNCCCCNCc2ccccn2)nc1 [5i] | > 300 µM | 28.8 ± 5.14 µM | >12.82 | > 250 µM | 132 ± 12.3 µM | >0.35 | 
O=C1CSC(c2ccccn2)N1CCN1C(=O)CSC1c1ccccn1 (stereo not drawn) [6f] | > 250 µM | 176 ± 16 µM | >1.46 | 161 ± 5.58 µM | > 250 µM | >1.60 | 
O=C1CSC(c2ccncc2)N1CCN1C(=O)CSC1c1ccncc1 (stereo not drawn) [6h] | > 250 µM | > 250 µM | >1.0 | > 250 µM | > 250 µM | >1.0 | 
c1cc(CNCCNCc2ccncc2)ccn1 [5h] | > 413 µM | 181 ± 1.89 µM | >2.28 | > 250 µM | 356 ± 37.1 µM | >0.86 | 
COc1ccc(CNCCCCNCc2ccc(OC)c(O)c2)cc1O [5e] | 248 µM | > 250 µM |  | 1.22 ± 0.08 µM | > 250 µM |  | 
O=C(CCl)NCCCNC(=O)CCl [7b] | 158 ± 4.53 µM | 76.4 ± 1.05 µM | 2.07 | 1.01 ± 0.13 µM | 32.7 ± 6.56 µM | 32.35 | 
O=C1CSC(c2ccncc2)N1CCCCN1C(=O)CSC1c1ccncc1 (stereo not drawn) [6k] | > 250 µM | > 250 µM | >1.0 | > 250 µM | > 250 µM | >1.0 | 
O=C1CSC(c2ccccc2)N1CCN1C(=O)CSC1c1ccccc1 (stereo not drawn) [6a] | > 250 µM | 136 ± 6.96 µM | >1.91 | 237 ± 12.1 µM | 171 ± 3.77 µM | 0.72 | 
O=C1CSC(c2ccccn2)N1CCCCN1C(=O)CSC1c1ccccn1 (stereo not drawn) [6i] | > 250 µM | > 250 µM | >1.0 | > 250 µM | > 250 µM | >1.0 | 
c1ccc(CNCCNCc2ccccc2)cc1 [5a, N^1,N^2-dibenzylethane-1,2-diamine] | 239 ± 17.9 µM | 12.2 ± 2.45 µM | 19.58 | 2.54 ± 0.08 µM | 75.3 ± 2.57 µM |  | activity on intracellular amastigotes of L. panamensis, in words [5]: partially active (partially active with IC50 >25 μM and IC90 <100 μM); IC90 [5]: 88.1 ± 1.85 µM; IC50 [5]: 58.2 ± 3.23 µM; L.(V.) panamensis intracellular amastigotes SI [5]: 5; activity on L. (L.) infantum promastigotes, in words [2]: active; activity on T. cruzi epimastigotes, in words (T. cruzi epimastigotes): active; IC90 [4]: > 123 µM; IC50 [4]: 131.2 ± 0.92 µM; T. cruzi intracellular amastigotes SI [4]: 0.48; IC90 [6]: 131 ± 9.14 µM; IC50 [6]: 49.3 ± 4.7 µM; L. (L.) amazonensis intracellular amastigotes SI [6]: 6; IC90 [7]: 59.5 ± 2.78 µM; IC50 [7]: 25.4 ± 0.33 µM; L. (L.) infantum intracellular amastigotes SI [7]: 9.39 and 9
C[C@@H]1[C@H](O)[C@@H](C)/C=C/C=C/C=C/C=C/C=C/C=C/C=C/[C@H](O[C@@H]2O[C@H](C)[C@@H](O)[C@H](N)[C@@H]2O)C[C@@H]2O[C@](O)(C[C@@H](O)C[C@@H](O)[C@H](O)CC[C@@H](O)C[C@@H](O)CC(=O)O[C@H]1C)C[C@H](O)[C@H]2C(=O)O [AmB, Amphotericin B, reference compound] | 13.3 ± 1.72 µM | 0.014 ± 0.001 µM | 948.57 |  |  |  | IC90 [5]: 0.2 ± 0.002 µM; IC50 [5]: 0.032 ± 0.002 µM; L.(V.) panamensis intracellular amastigotes SI [5]: 420; IC90 [6]: 0.2 ± 0.002 µM; IC50 [6]: 0.082 ± 0.002 µM; L. (L.) amazonensis intracellular amastigotes SI [6]: 616; IC90 [7]: 0.138 ± 0.023 µM; IC50 [7]: 0.045 ± 0.007 µM; L. (L.) infantum intracellular amastigotes SI [7]: 360
